In article PMC5609566, “Elucidation of antimicrobial activity and mechanism of action by N-substituted carbazole derivatives” (Bioorganic & Medicinal Chemistry Letters, 2017):
Converted amounts (≈) assume the structure as drawn.

How the values were obtained:
[1] = system: Aspergillus flavus ATCC MYA-1005; experiment: Mold growth inhibition; format: cell-based; settings: Aspergillus flavus ATCC MYA-1005, n=3; read-out: Fungal Growth Inhibition MIC
Text: (§1) We subsequently assessed the carbazole series for antifungal activity, as described in Kjellerup et al., 2017.[15] Table 2, Table 3, Table 4, Table 5 list the minimum inhibitory concentrations (MIC) and the minimum fungicidal concentrations (MFC) of the fifteen compounds tested against the yeasts Saccharomyces cerevisiae, Candida albicans, C. krusei, and two isolates of C. glabrata (a wild-type strain ATCC 90030 and a clinical azole-resistant isolate Cg003 with increased efflux pump expression[19]), and the molds Aspergillus fumigatus and A. flavus. MIC was defined as the lowest concentration inhibiting visual growth of the microorganism in RPMI-1640 media. […] However, in several cases antifungal activity against molds was minimal, Table 5.
(§2) Compound hits from the library screening were evaluated against baker yeast S. cerevisiae and C. albicans (ATCC 90028). The minimum inhibitory concentration (MIC) was defined as the lowest concentration inhibiting visual growth of the microorganism and this was determined in triplicate. Standard errors were typically less than 5%. MICs for synthesized compounds were determined on the following fungal isolates: Saccharomyces cerevisiae (ATCC 9763), Candida albicans (SC5314), Candida krusei (ATCC 6258), Candida glabrata (ATCC 90030), Aspergillus flavus (ATCC MYA-1005) and Aspergillus fumigatus (ATCC 13073), which were purchased from American Type Culture Collection, and C. glabrata strain Cg003, which was kindly provided by Julius Subik, Comenius University in Bratislava, Slovak Republic. Cg003 is a clinical isolate, characterized to be resistant to fluconazole and itraconazole due to overexpression of the multidrug resistance efflux pumps Cdr1p and Cdr2p^5. The fungal growth assay was performed as described in Kjellerup et al., 2017^6.

[2] = system: Aspergillus fumigatus ATCC 13073; experiment: Mold growth inhibition; format: cell-based; settings: ATCC13073; Aspergillus fumigatus ATCC 13073, n=3; read-out: Fungal Growth Inhibition MIC
Text: as §1, §2

S. cerevisiae H^+-ATPase = target: T1, S. cerevisiae H^+-ATPase (Saccharomyces cerevisiae, UniProt P05030); experiment: Colorimetric ATPase assay (ATP hydrolysis), S. cerevisiae plasma membranes; format: biochemical; settings: for IC50: pH 7, n = 3
T1 construct: transformed with the full-length cDNA of the S. cerevisiae plasma membrane H^+-ATPase isoform PMA1; made in house; host or cells: S. cerevisiae RS72
Text: To investigate the H^+-ATPase inhibitory effect of the compounds we isolated plasma membranes containing H^+-ATPase from S. cerevisiae and C. albicans cells.[15] Plasma membranes isolated from pig kidney as well as endoplasmic reticulum membranes from rabbit hind leg muscle were used to counter-screen compounds for activity against mammalian Na^+,K^+-ATPase and Ca^2+-ATPase, respectively. Prior to their use, fungal plasma membrane batches were validated by determining the maximum ATP hydrolysis activity, the pH optimum of the ATPase activity, and the sensitivity to inhibition by orthovanadate. ATPase activity was determined by a colorimetric assay that measures the amount of inorganic phosphate liberated over time, as described in Kjellerup et al., 2017.[15] Table 2, Table 3, Table 4 list the IC50 values obtained by measuring the concentration dependence of the ATPase activity for the fifteen carbazole compounds with each of the four membrane preparations.
Pma1-containing plasma membranes were prepared from S. cerevisiae RS72 yeast cells that had been transformed with the full-length cDNA of the S. cerevisiae plasma membrane H^+-ATPase isoform PMA1 under control of the PMA1 promoter, using the same procedure as described in Kongstad et al., 2014^1. For the preparation of C. albicans membranes, a 100 ml overnight culture grown in YPD (10 g/L yeast extract (BD, Sparks, MD), 20 g/L Bacto peptone (BD), 20 g/L D-(+)-glucose) was transferred to 1 L YPD and grown for a further 7 h at RT with agitation (150 rpm), followed by cell harvesting and subsequent membrane preparation using the same procedure as described in Kongstad et al., 2014^1. […] Rabbit sarcoplasmic reticulum membranes containing Sarco/Endoplasmic Reticulum Ca^2+ ATPase (SERCA) were kindly provided by Dr. Claus E. Olesen and Dr. Jesper V. Møller, Aarhus University and prepared as described in Andersen et al., 1985^2. Pig kidney Na^+,K^+-ATPase was kindly provided by Dr. Natalya Fedosova, Aarhus University and prepared as described in Klodos et al., 2002^3.
The compound libraries were purchased from Enamine Ltd, Ukraine and Chembridge Corp, USA. ATPase activity was determined by measuring the amount of liberated phosphate from ATP hydrolysis. […] Reactions were initiated by the addition of Na-ATP to a final concentration of 2.5 mM (Pma1 and Na^+,K^+-ATPase) or 5 mM (SERCA), followed by 30 minutes incubation at 30 °C. The amount of liberated phosphate was determined colorimetrically after addition of STOP solution (mixture of L-ascorbic acid, ammonium heptamolybdate tetrahydrate, and HCl to give final concentrations of 65 mM, 2.2 mM, and 189 mM, respectively) with 5 minutes incubation at room temperature (RT) followed by addition of arsenite solution (mixture of NaAsO2, sodium citrate dihydrate, and acetic acid to give final concentrations of 3.1 mM, 28 mM, and 141 mM, respectively). Absorption was measured at 860 nm after an additional 30 minutes incubation at RT.

[3] = system: Escherichia coli ATCC 25922; experiment: Bacterial growth inhibition assay; format: cell-based; settings: ATCC25922; Escherichia coli ATCC 25922, n=3
Text: (§3) To further support the notion that the carbazole H^+-ATPase inhibitors were specific inhibitors of fungal growth, we tested the effect of all fifteen compounds on the growth of two bacterial species; the gram-positive Staphylococcus aureus and the gram-negative Escherichia coli. […] Compound 16 and 17 were interesting as they were potent inhibitors of the ATP hydrolysis in the enzymatic assay and potent H^+-ATPase inhibitors in whole fungal cell assay (iATP and extracellular acidification).
(§4) The bacterial strains used in this study were purchased from DSMZ, Germany. Bacteria cells were grown in Mueller-Hinton broth (MHB) to mid-exponential phase and freeze stocks were prepared at 1-2 × 10^8 CFU/mL in MHB and 20% glycerol and stored at -20 °C. These stocks were used to inoculate bacterial growth assays at a final concentration of 5 × 10^5 CFU/mL in MHB together with 1.5 % DMSO or compound in a 96-well plate and incubated for 16-29 h at 35 °C, whereafter growth was determined by reading at OD600. Kanamycin and ampicillin were used as positive control compounds. Experiments were performed at least twice and standard errors were typically less than 5 %.

[4] = system: Staphylococcus aureus ATCC 29213; experiment: Bacterial growth inhibition assay; format: cell-based; settings: ATCC29213; Staphylococcus aureus ATCC 29213, n=3
Text: as §3, §4

T1 sequence (P05030 whole entry, canonical isoform): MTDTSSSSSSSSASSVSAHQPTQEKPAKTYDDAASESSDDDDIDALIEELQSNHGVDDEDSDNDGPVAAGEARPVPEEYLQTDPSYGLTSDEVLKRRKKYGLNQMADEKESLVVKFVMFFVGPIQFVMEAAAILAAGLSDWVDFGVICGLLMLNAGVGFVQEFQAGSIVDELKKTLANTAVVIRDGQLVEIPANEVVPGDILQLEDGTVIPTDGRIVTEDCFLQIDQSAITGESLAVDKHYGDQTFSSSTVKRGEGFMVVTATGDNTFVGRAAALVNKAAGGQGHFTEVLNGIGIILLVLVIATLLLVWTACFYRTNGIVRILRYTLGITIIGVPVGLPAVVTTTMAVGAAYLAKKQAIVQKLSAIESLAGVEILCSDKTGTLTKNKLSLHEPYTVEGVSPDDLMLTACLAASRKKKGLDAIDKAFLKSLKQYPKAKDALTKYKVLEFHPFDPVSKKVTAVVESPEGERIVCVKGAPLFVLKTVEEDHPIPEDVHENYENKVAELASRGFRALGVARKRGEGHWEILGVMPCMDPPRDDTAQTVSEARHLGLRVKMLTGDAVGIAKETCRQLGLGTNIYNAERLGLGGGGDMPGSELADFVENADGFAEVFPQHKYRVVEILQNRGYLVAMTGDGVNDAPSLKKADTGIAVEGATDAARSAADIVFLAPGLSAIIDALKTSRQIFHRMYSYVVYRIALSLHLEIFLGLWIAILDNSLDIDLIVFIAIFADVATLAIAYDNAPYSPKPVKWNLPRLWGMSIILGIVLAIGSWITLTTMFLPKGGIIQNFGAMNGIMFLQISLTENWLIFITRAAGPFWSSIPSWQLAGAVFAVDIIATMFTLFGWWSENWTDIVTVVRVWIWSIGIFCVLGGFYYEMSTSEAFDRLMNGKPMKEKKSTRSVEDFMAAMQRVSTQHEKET

| Structure (SMILES) | MIC [1] [µM] | MIC [2] [µM] | IC50 (S. cerevisiae H^+-ATPase) [µM] | MIC [3] [µM] | MIC [4] [µM] | fold more potent H^+-ATPase inhibition than the parent compounds 1–4 (S. cerevisiae H^+-ATPase; IC50 ratio) |
| --- | --- | --- | --- | --- | --- | --- |
| O=C(O)C1CCN(CC(O)Cn2c3ccc(Cl)cc3c3cc(Cl)ccc32)CC1 (stereo not drawn) [Compound 9, 1-(3-(3,6-dichloro-9H-carbazol-9-yl)-2-hydroxypropyl)piperidine-4-carboxylic acid] | > 75 | > 75 | 107 ± 11.8 | > 75 | 75 (≈ 31.6 µg/mL) |  |
| OC(Cn1ccnc1)Cn1c2ccc(Cl)cc2c2cc(Cl)ccc21 (stereo not drawn) [Compound 5, 1-(3,6-dichloro-9H-carbazol-9-yl)-3-(1H-imidazol-1-yl)propan-2-ol] | > 75 | > 75 | 23 ± 12.3 | > 75 | 7.5 (≈ 2.7 µg/mL) |  |
| CN(C)CCCn1c2ccc(Cl)cc2c2cc(Cl)ccc21 [Compound 14, 3-(3,6-dichloro-9H-carbazol-9-yl)-N,N-dimethyl-propan-1-amine] | > 75 | > 75 | 36.2 ± 3.1 | 75 (≈ 24.1 µg/mL) | 7.5 (≈ 2.41 µg/mL) |  |
| CCC(C)NCC(O)Cn1c2ccc(Cl)cc2c2cc(Cl)ccc21 (stereo not drawn) [Compound 10, 1-(sec-butylamino)-3-(3,6-dichloro-9H-carbazol-9-yl)propan-2-ol] | 12 (≈ 4.38 µg/mL) | 3.7 (≈ 1.35 µg/mL) | 2 ± 0.2 | 20 (≈ 7.31 µg/mL) | 2.9 (≈ 1.06 µg/mL) | ca. 9 fold |
| CN(C)CCCCn1c2ccc(Cl)cc2c2cc(Cl)ccc21 [Compound 15] | 75 (≈ 25.1 µg/mL) | 24 (≈ 8.05 µg/mL) | 51.8 ± 0.5 | 75 (≈ 25.1 µg/mL) | 24 (≈ 8.05 µg/mL) |  |
| Clc1ccc2c(c1)c1cc(Cl)ccc1n2CCCN1CCOCC1 [Compound 18, 4-(3-(3,6-dichloro-9H-carbazol-9-yl)propyl)morpholine] | > 75 | > 75 | 11.1 ± 3.8 | > 75 | > 75 |  |
| CN1CCN(CC(O)Cn2c3ccc(Cl)cc3c3cc(Cl)ccc32)CC1 (stereo not drawn) [Compound 8, 1-(3,6-dichloro-9H-carbazol-9-yl)-3-(4-methylpiperazin-1-yl)propan-2-ol] | > 75 | 75 (≈ 29.4 µg/mL) | 52.7 ± 10.6 | 75 (≈ 29.4 µg/mL) | 64 (≈ 25.1 µg/mL) |  |
| CN1CCN(CC(O)Cn2c3ccc(O)cc3c3cc(O)ccc32)CC1 (stereo not drawn) [Compound 13, 9-(2-hydroxy-3-(4-methylpiperazin-1-yl)propyl)-9H-carbazole-3,6-diol] | > 75 | > 75 | > 167 | > 75 | > 75 |  |
| OC(CN1CCOCC1)Cn1c2ccc(Cl)cc2c2cc(Cl)ccc21 (stereo not drawn) [Compound 7, 1-(3,6-dichloro-9H-carbazol-9-yl)-3-morpholinopropan-2-ol] | > 75 | > 75 | 6.9 ± 1.3 | > 75 | 41 (≈ 15.6 µg/mL) |  |
| OC(Cn1cncn1)Cn1c2ccc(Cl)cc2c2cc(Cl)ccc21 (stereo not drawn) [Compound 6, 1-(3,6-dichloro-9H-carbazol-9-yl)-3-(1H-1,2,4-triazol-1-yl)propan-2-ol] | > 75 | > 75 | 7.4 ± 1.6 | > 75 | 41 (≈ 14.8 µg/mL) |  |
| COc1ccc2c(c1)c1cc(OC)ccc1n2CC(O)CN1CCN(C)CC1 (stereo not drawn) [Compound 11, 1-(3,6-dimethoxy-9H-carbazol-9-yl)-3-(4-methylpiperazin-1-yl)propan-2-ol] | > 75 | > 75 | > 167 | > 75 | > 75 |  |
| CN1CCN(CCCn2c3ccc(Cl)cc3c3cc(Cl)ccc32)CC1 [Compound 16, 3,6-dichloro-9-(3-(4-methylpiperazin-1-yl)propyl)-9H-carbazole] | 24 (≈ 9.03 µg/mL) | 41 (≈ 15.4 µg/mL) | 20 ± 1 | 75 (≈ 28.2 µg/mL) | 24 (≈ 9.03 µg/mL) |  |
| CN1CCN(CC(O)Cn2c3ccc(C#N)cc3c3cc(C#N)ccc32)CC1 (stereo not drawn) [Compound 12, 9-(2-hydroxy-3-(4-methylpiperazin-1-yl)propyl)-9H-carbazole-3,6-dicarbonitrile] | > 75 | > 75 | > 167 | > 75 | > 75 |  |
